Source: paper PMC3349722, “Prediction of Drug-Target Interactions and Drug Repositioning via Network-Based Inference” (PLoS Computational Biology, 2012)
Structures can show the parent of a compound that is named as a salt. Where two headings read alike, the source gives them in different places.

Assays:
[1] = target: ERβ (Homo sapiens, UniProt Q92731); assay: Yeast two-hybrid system-based assay (ERβ LBD/SRC1, α-galactosidase), agonist and antagonist mode; assay type: cell-based; settings: for Inhibitive Ratio% (10 μM), ERβ: antagonist assay with 1 nM E2; for IC50: read-out: IC50 on ERβ (antagonistic activity)
[2] = target: T1, ERα (Homo sapiens, UniProt P03372); assay: Yeast two-hybrid system-based assay (ERα LBD/SRC1, α-galactosidase), agonist and antagonist mode; assay type: cell-based; settings: for Inhibitive ratio % (10 μM), ERα: antagonist assay with 1 nM E2; for Agonistic activities (10 μM), ERα: DMSO = 1; for EC50: agonist testing
T1 sequence (P03372 301-553): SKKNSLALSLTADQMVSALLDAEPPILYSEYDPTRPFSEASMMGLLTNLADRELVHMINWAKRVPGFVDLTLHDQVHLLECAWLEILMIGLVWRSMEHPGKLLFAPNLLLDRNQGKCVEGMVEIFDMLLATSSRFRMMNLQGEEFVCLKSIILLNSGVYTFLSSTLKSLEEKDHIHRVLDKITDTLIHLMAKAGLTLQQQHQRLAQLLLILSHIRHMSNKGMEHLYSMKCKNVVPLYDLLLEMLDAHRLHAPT

[3] = target: T2, human recombinant DPP-IV (Homo sapiens, UniProt P27487); assay: Dipeptidyl peptidase-IV inhibition assay (DPP-IV Drug Discovery Kit, fluorimetric); assay type: biochemical; settings: for Inhibition Ratio (%) to DPP-IV: test concentration not given
T2 construct: purchased Biomol
Method: The inhibitory effects of compounds on human recombinant DPP-IV was determined using a DPP-IV Drug Discovery Kit (Biomol, USA) according to the manufacturer's instructions. The activity of DPP-IV was detected in a Synergy™ 2 Multi-Mode Microplate Reader (BioTek) at an excitation wavelength of 380 nm and an emission wavelength of 460 nm. […] IC50 values were determined using the GraphPad Prism 4 software with three independent determinations.
Table S4. The inhibitive activities profiles of nine approved drugs for dipeptidyl peptidase -IV
(DPP -IV ) enzyme inhibition assay. The inhibitory effects of compounds on human recombinant
DPP4 was determined using a DPP -IV Drug Discovery Kit (Biomol, USA) according to the
manufacturer ’s instructions. The DPP-IV Drug Discovery Kit is a complete assay system designed
to screen DPP 4 small molecule inhibitors. The fluorimetric assay is based on the cleavage of
7- a mino -4-methylcoumarin (AMC) moiety from peptide substrate (H-Gly-P ro-AMC), which
increases its fluorescence intensity at 460 nm. Compounds dilutions were prepared from stock in
DMSO and diluted with assay buffer for inhibition assay. A 40 μL solution of DPP -IV enzyme in
assa y buffer was incubated with 10μ L of various concentrations of test compoundsolutions for 10
min at room temperature. The reaction was initiated b y the addition of 50 μL of H-Gly-P ro- AMC
with a final concentration of 5 μM. The activity of DPP4 was detected in a Synergy™ 2
Multi-Mode Microplate Reader (BioTek) at an excitation wavelength of 380 nm and an emission
wavelength of 460 nm. […] IC 50 values were
determined by using the G raphP ad Prism 4 software with three independent determinations.

[4] = tested on: ERα and ERβ; assay: Yeast two-hybrid system-based assay, summary statements on ER (subtype not separated)
[5] = tested on: MDA-MB-231 cells; assay: MTT assay of cell proliferation; assay type: cell-based; settings: Homo sapiens, MDA-MB-231 breast cancer cell line, 24 h, read-out: Antiproliferative activity IC50
Method: Cell proliferation was quantified by MTT assay. MDA-MB-231 cells were seeded at a density of 1.5×10^4 in a 96-well plate with DMEM/F12 supplemented with 10% charcoal stripped FBS without phenol red, and then incubated with the tested compounds in humidified air containing 5% CO2 at 37°C. After incubation for 24 h, 20 µL of 5 mg/mL MTT was added and incubated for another 4 h. Then the converted dye was dissolved in 100 µL of DMSO and the absorbance was measured at 570 nm.

Sequence of ERβ (Q92731 248-510): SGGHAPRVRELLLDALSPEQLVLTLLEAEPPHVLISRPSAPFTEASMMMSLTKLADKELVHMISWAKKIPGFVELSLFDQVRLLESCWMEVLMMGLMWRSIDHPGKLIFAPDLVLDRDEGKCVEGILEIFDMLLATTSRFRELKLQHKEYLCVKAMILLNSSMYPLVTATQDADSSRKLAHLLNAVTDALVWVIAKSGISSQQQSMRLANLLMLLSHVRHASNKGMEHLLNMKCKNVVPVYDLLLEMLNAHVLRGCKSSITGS
T2 sequence (P27487 whole entry): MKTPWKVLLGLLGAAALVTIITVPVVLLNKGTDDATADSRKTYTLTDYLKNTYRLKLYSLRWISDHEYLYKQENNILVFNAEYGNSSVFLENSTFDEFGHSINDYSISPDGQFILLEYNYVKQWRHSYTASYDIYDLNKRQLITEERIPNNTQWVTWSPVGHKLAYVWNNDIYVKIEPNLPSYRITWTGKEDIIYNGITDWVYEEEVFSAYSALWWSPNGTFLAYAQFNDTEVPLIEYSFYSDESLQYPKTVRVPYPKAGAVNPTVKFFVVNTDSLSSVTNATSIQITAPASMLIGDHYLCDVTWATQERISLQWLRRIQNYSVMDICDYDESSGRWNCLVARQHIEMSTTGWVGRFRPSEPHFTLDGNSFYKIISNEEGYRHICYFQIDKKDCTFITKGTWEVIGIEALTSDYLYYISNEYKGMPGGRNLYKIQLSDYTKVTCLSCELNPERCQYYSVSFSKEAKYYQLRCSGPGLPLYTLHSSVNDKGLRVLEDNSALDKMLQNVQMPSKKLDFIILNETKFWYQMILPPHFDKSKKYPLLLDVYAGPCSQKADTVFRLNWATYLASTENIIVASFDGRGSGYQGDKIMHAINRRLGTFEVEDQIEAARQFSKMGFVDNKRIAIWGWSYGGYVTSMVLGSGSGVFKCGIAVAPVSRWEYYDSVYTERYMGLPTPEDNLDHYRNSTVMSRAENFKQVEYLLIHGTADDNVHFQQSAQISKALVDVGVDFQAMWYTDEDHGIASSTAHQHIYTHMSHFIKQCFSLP

Row | Molecule | Inhibitive Ratio% (10 μM), ERβ [1] [%] | Agonistic activities (10 μM), ERβ ([1]; DMSO = 1) | Agonistic activities (10 μM), ERα [2] | also measured
1 | CN(C)CCCN1c2ccccc2Sc2ccc(Cl)cc21 [Chlorpromazine HCl] | 3.11 | 0.981 | – | –
2 | NS(=O)(=O)Cc1noc2ccccc12 [Zonisamide] | – | 1.029 | – | –
3 | CN(C)C(=O)C(CCN1CCC(O)(c2ccc(Cl)cc2)CC1)(c1ccccc1)c1ccccc1 [Loperamide] | 0 | 0.910 | 0.934 | Inhibitive ratio % (10 μM), ERα [2]: 6.18%
4 | CC[C@H](C)C(=O)O[C@H]1C[C@@H](C)C=C2C=C[C@H](C)[C@H](CC[C@@H]3C[C@@H](O)CC(=O)O3)[C@H]21 [Lovastatin] | – | – | – | Inhibition Ratio (%) to DPP-IV [3]: 9.49%
5 | C=CCN1CC[C@]23c4c5ccc(O)c4O[C@H]2C(=O)CC[C@@]3(O)[C@H]1C5 [Naloxone HCl] | 0 | 1.051 | – | –
6 | Nc1nc2c(ncn2CCC(CO)CO)c(=O)[nH]1 [Penciclovir] | 0 | 0.947 | – | –
7 | CCC(C)n1ncn(-c2ccc(N3CCN(c4ccc(OCC5COC(Cn6cncn6)(c6ccc(Cl)cc6Cl)O5)cc4)CC3)cc2)c1=O (stereo not shown) [Itraconazole] | 51.99 | 1.890 | 4.132 | Inhibitive ratio % (10 μM), ERα [2]: 8.19%; EC50 ([2]; REC50 on ERα (concentration showing 50% of the maximum agonistic activity of E2), relative to E2): 320 nM; EC50 ([2]; read-out: EC50 on ERα (agonistic activity)): 200 nM; IC50 or EC50 values on ER [4]: less than 1 μM; IC50 or EC50 values on ER ([4]; listed as itraconazole): less than 10 μM; IC50 ([1]; antagonist assay): 280 nM
8 | N[C@@H]1C[C@H]1c1ccccc1 (racemic) [Tranylcypromine] | 0 | 0.965 | 0.988 | Inhibitive ratio % (10 μM), ERα [2]: 4.3%
9 | NC(=O)N1c2ccccc2C=Cc2ccccc21 [Carbamazepine] | – | – | – | Inhibition Ratio (%) to DPP-IV [3]: 19.67%
10 | CC#C[C@]1(O)CC[C@H]2[C@@H]3CCC4=CC(=O)CCC4=C3[C@@H](c3ccc(N(C)C)cc3)C[C@@]21C [Mifepristone] | 27.16 | 1.080 | 1.463 | Inhibitive ratio % (10 μM), ERα [2]: 0%
11 | C[C@]12CC[C@@H]3c4ccc(O)cc4CC[C@H]3[C@@H]1CC[C@@H]2O [E2, estradiol] | – | – | – | Agonistic activities, ERβ, E2 control ([1]; 1 nM, DMSO = 1): 5.77
12 | 17-hydroxyprogesterone | 13.01 | 0.961 | – | –
13 | O=C(O)Cc1ccccc1Nc1c(Cl)cccc1Cl [Diclofenac] | – | 0.846 | – | IC50 or EC50 values on ER [4]: less than 10 μM; IC50 [1]: 2320 nM
14 | COc1ccc2[nH]cc(CCNC(C)=O)c2c1 [Melatonin] | 0 | 0.914 | – | –
15 | CC(C)(O)c1ccccc1CC[C@@H](SCC1(CC(=O)O)CC1)c1cccc(/C=C/c2ccc3ccc(Cl)cc3n2)c1 [Montelukast] | – | – | – | Inhibition Ratio (%) to DPP-IV [3]: 49.7%; IC50 ([3]; three independent determinations): 9790 nM
16 | CCC1(c2ccc(N)cc2)CCC(=O)NC1=O (racemic) [Dl-aminoglutethimide] | – | – | 0.956 | –
17 | CC(=O)OCC(CCn1cnc2cnc(N)nc21)COC(C)=O [Famciclovir] | 0 | 0.894 | – | –
18 | CS(=O)(=O)CCNCc1ccc(-c2ccc3ncnc(Nc4ccc(OCc5cccc(F)c5)c(Cl)c4)c3c2)o1 [Lapatinib] | – | – | 0.995 | Inhibitive ratio % (10 μM), ERα [2]: 14.01%; Inhibition Ratio (%) to DPP-IV [3]: 39.64%
19 | Cc1ccc(C)c(OCCCC(C)(C)C(=O)O)c1 [Gemfibrozil] | – | – | – | Inhibition Ratio (%) to DPP-IV [3]: 17.35%
20 | O=c1[nH]c2ccccc2n1C1CCN(CCCC(c2ccc(F)cc2)c2ccc(F)cc2)CC1 [Pimozide] | – | – | 0.955 | Inhibitive ratio % (10 μM), ERα [2]: 4.58%
21 | CCC(C)(C)C(=O)O[C@H]1C[C@@H](C)C=C2C=C[C@H](C)[C@H](CC[C@@H]3C[C@@H](O)CC(=O)O3)[C@H]21 [Simvastatin] | – | – | – | IC50 [5]: 1490 nM
22 | CN/C(=N/CCSCc1nc[nH]c1C)NC#N [Cimetidine] | – | – | 1.018 | Inhibitive ratio % (10 μM), ERα [2]: 2.4%
23 | COC(=O)C1=C(C)NC(C)=C(C(=O)OCCN(C)Cc2ccccc2)C1c1cccc([N+](=O)[O-])c1 (stereo not shown) [Nicardipine] | – | – | 0.962 | Inhibitive ratio % (10 μM), ERα [2]: 15.21%; Inhibition Ratio (%) to DPP-IV [3]: 21.24%
24 | CC(=O)N1CCN(c2ccc(OCC3COC(Cn4ccnc4)(c4ccc(Cl)cc4Cl)O3)cc2)CC1 (stereo not shown) [Ketoconazole] | – | 0.853 | – | IC50 or EC50 values on ER [4]: less than 1 μM; IC50 or EC50 values on ER ([4]; listed as ketoconazole): less than 10 μM; IC50 [5]: 8950 nM; IC50 [1]: 790 nM
25 | CCc1ccc(CCOc2ccc(CC3SC(=O)NC3=O)cc2)nc1 (stereo not shown) [Pioglitazone] | – | – | – | Inhibition Ratio (%) to DPP-IV [3]: 18.63%
26 | CC[C@@H]1C(=O)OC[C@@H]1Cc1cncn1C.Cl [Pilocarpine HCl] | – | – | 1.008 | –
27 | CC(C)(C#N)c1cc(Cn2cncn2)cc(C(C)(C)C#N)c1 [Anastrozole] | – | 1.011 | – | –
28 | CC(C)C(=O)Nc1ccc([N+](=O)[O-])c(C(F)(F)F)c1 [Flutamide] | 2.83 | 0.949 | – | –
29 | N#Cc1ccc(C(c2ccc(C#N)cc2)n2cncn2)cc1 [Letrozole] | 0 | 0.846 | – | –
